Experimental data as given in US20070249620A1, “Urea Derivative” (priority 2004, published 2007).

Assays:
mouse DGAT1 = target: T1, mouse DGAT1 (Mus musculus, UniProt Q9Z2A7); experiment: DGAT1 inhibitory effect test (microsome fraction, [14C]-oleoyl-CoA, triglyceride radioactivity by TLC); format: biochemical; conditions: 0.5 h; concentration of the test compound 0.1 μg/ml; mouse DGAT1 microsomes, 23° C., 30 minutes; read-out: Inhibitory ratio
T1 construct: made in house; host or cells: insect cells (High Five, Sf9, Sf21, etc.), baculovirus expression system (Invitrogen)
T1 sequence (Q9Z2A7 1-498): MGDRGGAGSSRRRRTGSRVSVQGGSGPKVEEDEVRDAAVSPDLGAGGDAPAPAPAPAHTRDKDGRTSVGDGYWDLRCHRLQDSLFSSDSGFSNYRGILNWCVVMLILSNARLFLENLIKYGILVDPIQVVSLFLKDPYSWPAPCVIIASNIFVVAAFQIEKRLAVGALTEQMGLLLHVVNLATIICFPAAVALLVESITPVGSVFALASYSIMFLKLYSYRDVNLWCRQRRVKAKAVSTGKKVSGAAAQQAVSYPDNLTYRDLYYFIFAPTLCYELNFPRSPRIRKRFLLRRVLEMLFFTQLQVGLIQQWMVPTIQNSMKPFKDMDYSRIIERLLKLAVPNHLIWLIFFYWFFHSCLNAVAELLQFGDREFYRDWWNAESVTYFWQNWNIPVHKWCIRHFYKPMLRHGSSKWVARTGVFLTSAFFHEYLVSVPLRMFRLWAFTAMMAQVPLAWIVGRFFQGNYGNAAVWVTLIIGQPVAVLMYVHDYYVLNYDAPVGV
Method in brief: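 Inhibition was scored from radiolabelled triglyceride separated by TLC, relative to vehicle and net of a 0-min background. The reaction ran for 30 min at room temperature (23 °C) in Tris-HCl pH 8.0 with MgCl2, BSA and Triton X-100. Substrates were 30 μM [14C]-oleoyl-CoA and 0.5 mM dioleoylglycerol, with mouse DGAT1 microsomes from baculovirus-infected insect cells as enzyme.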

| Structure (SMILES) | inhibition at 0.1 µg/mL (mouse DGAT1) | melting point |
| --- | --- | --- |
| CCOc1ccccc1NC(=O)Nc1ccc(N2CCN(C(=O)Nc3c(Cl)cccc3Cl)CC2)cc1 [Example 133, 4-{4-[3-(2-ethoxy-phenyl)-ureido]-phenyl}-piperazine-1-carboxylic acid (2,6-dichloro-phenyl)-amide] | ≥ 50% | 164 to 166 °C |
| COc1ccc(F)cc1NC(=O)Nc1ccc(N2CCN(C(=O)Nc3ccccc3C)CC2)cc1 [Example 97, 4-{4-[3-(5-fluoro-2-methoxy-phenyl)-ureido]-phenyl}-piperazine-1-carboxylic acid o-tolylamide] | ≥ 50% | 222 to 224 °C |
| COc1ccc(C)cc1NC(=O)Nc1ccc(N2CCN(C(=O)Nc3ccccc3C#N)CC2)cc1 [Example 61, 4-{4-[3-(2-methoxy-5-methyl-phenyl)-ureido]-phenyl}-piperazine-1-carboxylic acid (2-cyano-phenyl)-amide] | ≥ 50% | 210 to 212 °C |
| COc1ccc(F)cc1NC(=O)Nc1ccc(N2CCN(C(=O)Nc3ccc(C)cc3Cl)CC2)cc1 [Example 123, 4-{4-[3-(5-fluoro-2-methoxy-phenyl)-ureido]-phenyl}-piperazine-1-carboxylic acid (2-chloro-4-methyl-phenyl)-amide] | ≥ 50% | 233 to 235 °C |
| CCc1ccccc1NC(=O)N1CCN(c2ccc(NC(=O)Nc3cc(C)ccc3OC)cc2)CC1 [Example 58, 4-{4-[3-(2-methoxy-5-methyl-phenyl)-ureido]-phenyl}-piperazine-1-carboxylic acid (2-ethyl-phenyl)-amide] | ≥ 50% | 220 to 221 °C |
| CCOc1ccc(Cl)cc1NC(=O)Nc1ccc(N2CCN(C(=O)Nc3ccc(OC)cc3C)CC2)cc1 [Example 106, 4-{4-[3-(5-chloro-2-ethoxy-phenyl)-ureido]-phenyl}-piperazine-1-carboxylic acid (4-methoxy-2-methyl-phenyl)-amide] | ≥ 50% | 210 to 213 °C |
| CC(C)(C)OC(=O)N1CCN(c2ccc(NC(=O)Nc3ccc(C(C)(C)C)cc3)cc2)CC1 [Example 33, 4-{4-[3-(4-tert-butyl-phenyl)-ureido]-phenyl}-piperazine-1-carboxylic acid tert-butyl ester] | ≥ 50% | 140 to 141 °C |
| CCCc1ccccc1NC(=O)Nc1ccc(N2CCN(C(=O)Nc3c(C)cccc3Cl)CC2)cc1 [Example 130, 4-{4-[3-(2-propyl-phenyl)-ureido]-phenyl}-piperazine-1-carboxylic acid (2-chloro-6-methyl-phenyl)-amide] | ≥ 50% | 216 to 217 °C |
| CCOc1ccc(F)cc1NC(=O)Nc1ccc(N2CCN(C(=O)Nc3ccccc3C)CC2)cc1 [Example 90, 4-{4-[3-(2-ethoxy-5-fluoro-phenyl)-ureido]-phenyl}-piperazine-1-carboxylic acid o-tolylamide] | ≥ 50% | 186 to 187 °C |
| CCOc1ccccc1NC(=O)Nc1ccc(N2CCN(C(=O)Nc3c(C)cccc3Cl)CC2)cc1 [Example 82, 4-{4-[3-(2-ethoxy-phenyl)-ureido]-phenyl}-piperazine-1-carboxylic acid (2-chloro-6-methyl-phenyl)-amide] | ≥ 50% | 215 to 217 °C |
| Cc1cccc(Cl)c1NC(=O)N1CCN(c2ccc(NC(=O)Nc3ccccc3Cl)cc2)CC1 [Example 126, 4-{4-[3-(2-chloro-phenyl)-ureido]-phenyl}-piperazine-1-carboxylic acid (2-chloro-6-methyl-phenyl)-amide] | ≥ 50% | > 260 °C (dec.) |
| CCOc1ccc(C)cc1NC(=O)Nc1ccc(N2CCN(C(=O)Nc3ccc(C)cc3Cl)CC2)cc1 [Example 120, 4-{4-[3-(2-ethoxy-5-methyl-phenyl)-ureido]-phenyl}-piperazine-1-carboxylic acid (2-chloro-4-methyl-phenyl)-amide] | ≥ 50% | 119 to 122 °C |

Other lines, results leading:

| inhibition at 0.1 µg/mL (mouse DGAT1) | melting point | Structure (SMILES) |
| --- | --- | --- |
| ≥ 50% | 232 to 234 °C | CCC(C)c1ccccc1NC(=O)Nc1ccc(N2CCN(C(=O)Nc3c(C)cccc3Cl)CC2)cc1 (centres unmarked) [Example 157, 4-{4-[3-(2-sec-butyl-phenyl)-ureido]-phenyl}-piperazine-1-carboxylic acid (2-chloro-6-methyl-phenyl)-amide] |
| ≥ 50% | 196 to 198 °C | COc1ccc(C)cc1NC(=O)Nc1ccc2c(c1)CCN(C(=O)Oc1ccc(C(=O)O)cc1Cl)C2 [Example 397, 6-[3-(2-methoxy-5-methyl-phenyl)-ureido]-3,4-dihydro-1H-isoquinoline-2-carboxylic acid 4-carboxy-2-chloro-phenyl ester] |
| ≥ 50% | 130 to 132 °C | CC(C)(C)c1csc(NC(=O)Nc2ccc(N3CCN(C(=O)Nc4ccc(OCCO)cc4C(F)(F)F)CC3)cc2)n1 [Example 224, 4-{4-[3-(4-tert-butyl-thiazol-2-yl)-ureido]-phenyl}-piperazine-1-carboxylic acid [4-(2-hydroxy-ethoxy)-2-trifluoromethyl-phenyl]-amide] |
| ≥ 50% | 222 to 224 °C | COc1ccc(C)cc1NC(=O)Nc1ccc(N2CCN(C(=O)Nc3c(Cl)cccc3Cl)CC2)nc1 [Example 140, 4-{5-[3-(2-methoxy-5-methyl-phenyl)-ureido]-pyridin-2-yl}-piperazine-1-carboxylic acid (2,6-dichloro-phenyl)-amide] |
| ≥ 50% | 193 to 194 °C | O=C(Nc1ccc(N2CCN(C(=O)Nc3ccc(OCCO)cc3C(F)(F)F)CC2)nc1)Nc1ccccc1F [Example 222, 4-{5-[3-(2-fluoro-phenyl)-ureido]-pyridin-2-yl}-piperazine-1-carboxylic acid [4-(2-hydroxy-ethoxy)-2-trifluoromethyl-phenyl]-amide] |
| ≥ 50% | 121 to 124 °C | COc1ccc(C)cc1NC(=O)Nc1ccc(N2CCN(C(=O)Nc3cc(OCCO)ccc3Cl)CC2)cc1 [Example 231, 4-{4-[3-(2-methoxy-5-methyl-phenyl)-ureido]-phenyl}-piperazine-1-carboxylic acid [2-chloro-5-(2-hydroxy-ethoxy)-phenyl]-amide] |
| ≥ 50% | 192 to 194 °C | COc1ccc(C)cc1NC(=O)Nc1ccc(N2CCN(C(=O)Nc3c(C)cccc3CO)CC2)cc1 [Example 185, 4-{4-[3-(2-methoxy-5-methyl-phenyl)-ureido]-phenyl}-piperazine-1-carboxylic acid (2-hydroxymethyl-6-methyl-phenyl)-amide] |
| ≥ 50% | > 240 °C (dec.) | COc1ccc(C)cc1NC(=O)Nc1ccc(N2CCCN(C(=O)Nc3c(C)cccc3C)CC2)cc1 [Example 201, 4-{4-[3-(2-methoxy-5-methyl-phenyl)-ureido]-phenyl}-perhydro-1,4-diazepine-1-carboxylic acid (2,6-dimethyl-phenyl)-amide] |
| ≥ 50% | 225 to 228 °C | COc1ccc(C)cc1NC(=O)Nc1ccc(N2CCN(C(=O)Nc3ccc(OCCO)cc3C(F)(F)F)CC2)c(C)c1 [Example 239, 4-{4-[3-(2-methoxy-5-methyl-phenyl)-ureido]-2-methyl-phenyl}-piperazine-1-carboxylic acid [4-(2-hydroxy-ethoxy)-2-trifluoromethyl-phenyl]-amide] |
| ≥ 50% | 196 to 197 °C | COc1ccc(C)cc1NC(=O)Nc1ccc(N2CCN(C(=O)Nc3ccc(OCCO)cc3Cl)CC2)nc1 [Example 268, 4-{5-[3-(2-methoxy-5-methyl-phenyl)-ureido]-pyridin-2-yl}-piperazine-1-carboxylic acid [2-chloro-4-(2-hydroxy-ethoxy)-phenyl]-amide] |
| ≥ 50% | 278 to 280 °C | Cc1cccc(Cl)c1NC(=O)N1CCN(c2ccc(NC(=O)Nc3ccc(C(C)C)cc3)cc2)CC1 [Example 158, 4-{4-[3-(4-isopropyl-phenyl)-ureido]-phenyl}-piperazine-1-carboxylic acid (2-chloro-6-methyl-phenyl)-amide] |
| ≥ 50% | 119 to 121 °C | COc1ccc(C)cc1NC(=O)Nc1ccc2c(c1)CCN(C(=O)Nc1ccc(OCC(O)CO)cc1Cl)C2 (centres unmarked) [Example 280, 6-[3-(2-methoxy-5-methyl-phenyl)-ureido]-3,4-dihydro-1H-isoquinoline-2-carboxylic acid [2-chloro-4-(2,3-dihydroxy-propoxy)-phenyl]-amide] |
| ≥ 50% | 184 to 185 °C | Cc1nc(NC(=O)Nc2ccc(N3CCN(C(=O)Nc4ccc(OCCO)cc4Cl)CC3)nc2)sc1C [Example 271, 4-{5-[3-(4,5-dimethyl-thiazol-2-yl)-ureido]-pyridin-2-yl}-piperazine-1-carboxylic acid [2-chloro-4-(2-hydroxy-ethoxy)-phenyl]-amide] |
